Measured values taken from ChEMBL document CHEMBL1201862, “PubChem BioAssay data set” (2004).
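Grown in 96-well plates, cells were treated for 48 hours with each compound at five concentrations. Insufficient inhibition: endpoint recorded as highest concentration tested. GI50 = concentration required for 50% inhibition of growth.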 The source made the active and inactive calls. Cut-off read from the data, not from the text of the source: active = GI50 up to about 1.1 µM and inactive = higher.

Key:
Test in all cases: inhibition of tumour cell growth, NCI panel, 48 h
[1] = system: SW-620
[2] = system: HOP-62
[3] = system: K562
[4] = system: NCI-H23
[5] = system: SK-MEL-5
[6] = system: CAKI-1
[7] = system: ACHN
[8] = system: A549
[9] = system: UACC-62
[10] = system: EKVX
[11] = system: SF-295
[12] = system: HCC 2998
[13] = system: HL-60
[14] = system: HCT-116
[15] = system: CCRF-CEM
[16] = system: A498
[17] = system: SK-MEL-28
[18] = system: Malme-3M

SMILES	GI50 [1]	GI50 [2]	GI50 [3]	GI50 [4]	GI50 [5]	GI50 [6]	GI50 [7]	GI50 [8]	GI50 [9]	GI50 [10]	GI50 [11]	GI50 [12]	GI50 [13]	GI50 [14]	GI50 [15]	GI50 [16]	GI50 [17]	GI50 [18]
Nc1nc(Cl)cc(NCCCCCCCCCCNc2cc(Cl)nc(N)n2)n1	35.6 µM (inactive)	22 µM (inactive)	0.0897 µM (active)	0.415 µM (active)	0.0982 µM (active)	25.6 µM (inactive)	< 0.01 µM (active)	3.21 µM (inactive)	0.0226 µM (active)	4 µM (inactive)	0.301 µM (active)	22.8 µM (inactive)	2.34 µM (inactive)	0.196 µM (active)	18.9 µM (inactive)	–	–	–
O=C1Cc2ccccc2N1/N=C\c1ccc(O)cc1	> 100 µM (inactive)	49.7 µM (inactive)	61.4 µM (inactive)	71.1 µM (inactive)	44.1 µM (inactive)	> 100 µM (inactive)	53.7 µM (inactive)	64.9 µM (inactive)	> 100 µM (inactive)	82.2 µM (inactive)	77.4 µM (inactive)	> 100 µM (inactive)	–	> 100 µM (inactive)	11.5 µM (inactive)	> 100 µM (inactive)	> 100 µM (inactive)	> 100 µM (inactive)
COc1cc(/C=C(\NC(=O)c2ccccc2)c2nc3cncnc3[nH]2)cc(OC)c1OC	> 100 µM (inactive)	–	> 100 µM (inactive)	> 100 µM (inactive)	> 100 µM (inactive)	> 100 µM (inactive)	> 100 µM (inactive)	> 100 µM (inactive)	> 100 µM (inactive)	> 100 µM (inactive)	> 100 µM (inactive)	> 100 µM (inactive)	> 100 µM (inactive)	–	> 100 µM (inactive)	–	> 100 µM (inactive)	> 100 µM (inactive)
Cc1ccc2nc(NC(=O)C(=O)C(C#N)c3ccc(Cl)cc3)sc2c1 (stereo not drawn)	> 50 µM (inactive)	> 50 µM (inactive)	–	> 50 µM (inactive)	–	> 50 µM (inactive)	> 50 µM (inactive)	> 50 µM (inactive)	> 50 µM (inactive)	> 50 µM (inactive)	> 50 µM (inactive)	> 50 µM (inactive)	–	> 50 µM (inactive)	–	–	> 50 µM (inactive)	> 50 µM (inactive)
CCCCCCCCCCC(O)CCCCCCC(=O)O (stereo not drawn)	29.9 µM (inactive)	35.9 µM (inactive)	13.2 µM (inactive)	35 µM (inactive)	16 µM (inactive)	36.3 µM (inactive)	22.5 µM (inactive)	18.2 µM (inactive)	19.8 µM (inactive)	31.7 µM (inactive)	27.1 µM (inactive)	–	8.05 µM (inactive)	17.2 µM (inactive)	27.5 µM (inactive)	23.2 µM (inactive)	45.8 µM (inactive)	26.2 µM (inactive)
O=C(OCc1ccccc1)N1N=NC2C3CC(OCc4ccccc4)(OCc4ccccc4)C(O3)C21 (stereo not drawn)	20.6 µM (inactive)	24.7 µM (inactive)	11 µM (inactive)	12.8 µM (inactive)	9.66 µM (inactive)	25.7 µM (inactive)	29.6 µM (inactive)	17.3 µM (inactive)	17.1 µM (inactive)	–	22.1 µM (inactive)	27 µM (inactive)	7.59 µM (inactive)	–	21.3 µM (inactive)	41.7 µM (inactive)	21.3 µM (inactive)	16.1 µM (inactive)
